The subject of series [1] is plasma coagulation (APTT). Nature of the series: APTT measurement on plasma (Reference Experiment 2). It is filed as biochemical. The conditions noted are these: plasma added with 500-μM exosite I recognizing thrombin aptamer. How it is done:
The measurement of APTT was carried out on […] of plasma with respect to each of sample A added with […] of physiological saline solution, sample B added with […] of 500-μM exosite I recognizing thrombin aptamer, and sample C added with 10 μl of a solution containing 500-μM exosite I recognizing thrombin aptamer and 1500-μM exosite I recognizing thrombin aptamer antisense DNA. The sample A was 44 seconds, the sample B was 2 minutes or more, and the sample C was 45 seconds.

Series [2] deals with blood coagulation. The series is described as follows: Time taken for coagulation of blood in Eppendorf tubes (Reference Experiment 1). It is filed as cell-based. The method, then: The blood immediately after blood sampling, the blood prepared by adding a volume of one tenth of 300 μg/ml of a maize-derived trypsin inhibitor to the first blood, and the blood prepared by adding a thrombin aptamer that recognizes exosite I to the second blood so as to be 5 μM in concentration were provided. Then, for these three kinds of the blood, the time taken for coagulation were measured in Eppendorf tubes (made of polypropylene). The sample was reversed up side down every one minute and the flowability thereof was confirmed.
Further, when 5 μM of a thrombin aptamer that recognizes exosite I and 5 μM of a thrombin aptamer that recognizes exosite II were used in combination, blood coagulation was not confirmed even after 3 hours even in the case of the blood free of the trypsin inhibitor.

Series [3] relates to thrombus formation in citrate-treated blood. The series is described as follows: Thrombus formation monitoring in a glass tube chamber with collagen-immersed silk as thrombus inducing material. It is filed as cell-based. The settings on record: 0.1 mg/ml added to solution A; flown for 15 minutes.
Description: After flowing the solution A in the syringe 20 at 3 ml/min and the solution B in the syringe 21 at 0.3 ml/min for 15 minutes, the thrombus formation chamber 10 was detached and the inside thereof was then washed with a physiological saline solution.
The test system of series [4] is blood coagulation. The series is described as follows: Thromboelastogram waveform of coagulation (Reference Experiment 3). It is filed as cell-based. The settings on record: aptamers to exosite I and II; stored at room temperature for 15 minutes. The method, then:
FIG. 11(A) is a result obtained by analyzing a thromboelastogram waveform of coagulation by adding 10 μM of each of aptamers for exosite I and exosite II to the blood, and after storing the blood at room temperature for 15 minutes, adding 40 μM of each of antisense DNAs of both aptamer. FIG. 11(B) illustrates the thromboelastogram waveform of the blood just after blood sampling.
FIG. 11(A) is an analysis of a waveform of coagulation with thromboelastogram by storing the blood added with […] of aptamers to exosite I and exosite II at room temperature for 15 minutes, and then by adding 40 μM of antisense DNAs of both aptamers. FIG. 11(B) is a thromboelastogram waveform of the blood just after blood sampling.

For series [5], the system named is thrombus formation in whole blood. Nature of the series: Microchip pressure measurement, collagen/tissue thromboplastin chamber, blood anticoagulated with trypsin inhibitor and thrombin aptamers, released with antisense DNAs (Example 17 system). It counts as cell-based. The source says:
A microchip 300, where the substrate and the cover of the microchip shown in FIG. 9(B) and FIG. 9(C), respectively, made of the same materials as those of Example 7 were pressure-bonded, was used. The microchip 300 comprises a blood coagulation inhibitor inlet tube 322 and a discharge tube 313 which were connected to the substrate 100 as in the case with the discharge tube of Example 7. However, the grooves of the microchip 300 of FIG. 9 are all formed of 200 μm in depth. […] A solution was prepared such that 1 vial of the Sysmex Corporation PT reagent (tissue thromboplastin) was dissolved in 1 ml of purified water and then dialyzed in purified water, the dialyzed product in purified water was mixed with collagen type I (manufactured by Nitta Gelatin Inc.) at a ratio of 1:1. After that, the applied portion was dried at 4° C. in air and thrombus formation chamber 311 was covered, which was used as a thrombus inducing material 315. The blood was collected after the addition of an anticoagulation treatment agent such that the final concentrations of the respective components in the syringe were 25 μg/ml for maize-derived trypsin inhibitor, 10 μM for exosite I thrombin aptamer, 10 μM for exosite II thrombin aptarner (5′-[…]-3′: SEQ D NO. 3). Immediately before monitoring, the blood thus collected was added with antisense DNAs with respect to thrombin aptamers of exosite I and exosite II so that each of them would reach to a concentration of 40 μM. Then, a syringe (1 ml syringe, manufactured by Terumo Corporation) was filled with the blood and provided as the sample syringe 320 shown in FIG. 9. The My Flow (manufactured by Arbiotec Co., Ltd), which is a micro-feeding pump capable of monitoring the inner pressure of a liquid-feeding pump, was connected to a pressure inlet tube 317 shown in FIG. 9. Mineral oil was pressed into the microchip 300 from the top of the syringe 320 and the blood was pushed out into the microchip 300 at a flow rate of 50 μl/min, while the pressure exerted on the sample syringe 320 was monitored. […]

In series [6] the test system is thrombus formation in citrate-treated blood. The series is described as follows: Thrombus formation monitoring in the FIG. 1 flow apparatus, collagen-coated constriction portion, citrate-treated blood released with CaCl2. The settings on record: 1 mg/ml added to solution A. It counts as cell-based. How it is done:
An apparatus for monitoring thrombus formation illustrated in FIG. 1 is used to fill a syringe 20 with 50 ml of a citrate-treated blood (solution A) in which 9 parts by volume of the blood immediately after the blood sample is mixed with 1 part by volume of 3.2% sodium citrate, and to fill a syringe 21 with 10 ml of 0.2M CaCl2 (solution B). The syringes 20 and 21 are connected to transparent nylon tubes (inlet tube 11 and drug tube 12) with an inner diameter of 3 mm. Both tubes are joined together at a T-shaped joint (cheese) and then connected to a polycarbonate thrombus formation chamber 10 of 3 mm in inner diameter and 1 cm in length through a single nylon tube (inlet tube 11) of 3 mm in inner diameter and 3 cm in length. The thrombus formation chamber 10 itself is constructed as a removable cassette. The joint portion between the cassette and the nylon tube (inlet tube 11) is made liquid-tight via an O-ring made of silicon rubber. A glass member is fixed on the inside of the cassette by an epoxy-based adhesive, thereby forming a constriction portion 14. The constriction portion 14 is designed so that the most narrowed site of the constriction portion 14 may have an inner diameter (the maximum gap between the constriction portion 14 and the inner wall) of 1.5 mm. In addition, the thrombus formation chamber 10 is connected liquid-tight with a tube as a discharge tube 13 having the same diameter and formed of the same material through an O-ring made of silicon rubber, and thus a thrombus monitoring apparatus 1 as illustrated in FIG. 1 is manufactured. Note that flange-type pressure gauges 40 and 41 are mounted on parts of the inlet tube 11 and the discharge tube 13 near the thrombus formation chamber 10 via joints (cheeses), respectively. […]
An apparatus for monitoring thrombus formation 1 is prepared and thrombus formation is then monitored in a manner similar to Example 1, except that the solution A of Example 1 is further added with an unfractionated heparin (prepared from pig mucous) at a concentration of 1 mg/ml.

The test system of series [7] is thrombus formation in whole blood. The series is described as follows: Microchip pressure measurement, blood anticoagulated with citric acid and maize-derived trypsin inhibitor, released with calcium chloride (Example 20 system). It counts as cell-based. The settings on record: 2 μg/ml. The method, then: The blood sampling was carried out with the addition of 3.2% citric acid so that the ratio of citric acid and the blood be 1:9. Further, the blood was added with a maize-derived trypsin inhibitor at a concentration of 25 μg/ml to carry out an anticoagulation reaction. Immediately after adding calcium chloride to the anticoagulated blood so that it should reach 15 mM with respect to the anticoagulated blood at the time of monitoring thrombus formation, the blood was added to a syringe (1-ml syringe, manufactured by Terumo Corporation), followed by inflowing the blood into the same microchip as that of Example 17 at a flow rate of 40 μl/min. Subsequently, a change in pressure was measured using the same system as that of Example 17. The pressure began to rise 15 minutes after starting the pressure measurement and it rose up to about 60 kPa.
The blood sampling was carried out with the addition of an anticoagulation treatment agent in manner similar to Example 20. Subsequently, the same procedure as that of Example 20 was carried out, except that ReoPro (LILLY Co., Ltd.) was added at a concentration of 2 μg/ml. The measurement of pressure was then performed. The pressure began to rise 20 minutes after starting the pressure measurement and it rose up to about 15 kPa after 25 minutes (FIG. 15).

With “5′-GGTTGGTGTGGTTGG-3′ (listed as DNA, chemistry not given here) [thrombin aptamer]”, in series [1], the APTT was ≥ 2 min. Further, the coagulation time in the series on blood coagulation [2] (5 μM exosite I thrombin aptamer added to the blood already containing trypsin inhibitor) amounted to 62 min.

Turning to `CC1CNc2c(cccc2S(=O)(=O)N[C@@H](CCCNC(=N)N)C(=O)N2CC[C@@H](C)C[C@@H]2C(=O)O)C1` (stereo partly shown) [Argatroban], in series [3], the “presence of thrombus in glass tube by visual observation after washing” value was “did not confirm the presence of thrombus”.

As for “thrombin aptamer that recognizes exosite I and thrombin aptamer that recognizes exosite II: combination of exosite I aptamer (SEQ ID NO. 1) and exosite II aptamer 5′-AGTCCGTGGTAGGGCAGGTTGGGGTGACT-3′ (SEQ ID NO. 3) (chain 1 GGTTGGTGTGGTTGG; listed as DNA, chemistry not given here)”, in the series with blood coagulation [4], the “effect on blood storage / coagulation by thromboelastogram” value is “allow the blood to be stored”. The “time without confirmed blood coagulation” value in the series on blood coagulation [2] (5 μM of each aptamer in combination, blood free of the trypsin inhibitor) is > 3 h.

Take unfractionated heparin: in series [5] (1 unit/ml, flow rate 50 μl/min), the “pressure rose up to” value was “about 10 kPa” and the “time after starting the measurement at which pressure began to rise” value was determined as 13 min. The “thrombus in the thrombus formation chamber by visual observation after washing” value in series [6] is on record as “thrombus cannot be found”. Further, in series [6] (solutions flown for 10 minutes), the “decrease in blood flow discharged from the discharge tube” value is on record as “no decrease in blood flow”; the “pressure difference between inlet tube and discharge tube pressure gauges” value is listed as “no pressure difference”.

B1: ReoPro: ReoPro (LILLY Co., Ltd.) (antibody, chains of the INN, looked up, V domains shown)
VH: EVQLQQSGTVLARPGASVKMSCEASGYTFTNYWMHWVKQRPGQGLEWIGAIYPGNSDTSYIQKFKGKAKLTAVTSTTSVYMELSSLTNEDSAVYYCTLYDGYYVFAYWGQGTLVTVSA
VL: EIVLTQSPVTLSVTPGDSVSLSCRASRDISNNLHWFQQTSHESPRLLIKYASQSMSGIPSRFSGSGSGTDFTLSINSVETEDFGMYFCQQTNSWPYTFGGGTKLEIK
modifications: Fab
Consider B1, for which, in series [5] (50 μg/ml, measurement for 18 minutes), the increase in pressure result is on record as “could not be confirmed”. In addition, the “pressure rose up to” value in series [7] (after 25 minutes) is given as “about 15 kPa”. In addition, the “time after starting the pressure measurement at which pressure began to rise” value in series [7] (flow rate 40 μl/min) came out at 20 min.

The record behind these values is patent US8372342B2, “Apparatus for monitoring thrombus formation and method of monitoring thrombus formation” (Fujimori Kogyo Co., Ltd., priority 2005, dated 2013).
